Assay results from ChEMBL document CHEMBL1152123, “11-Substituted 2,3-dimethoxy-8,9-methylenedioxybenzo[i]phenanthridine derivatives as novel topoisomerase I-targeting agents” (Bioorg Med Chem, 2008).
Each block holds one compound with its values, some of them ahead of it.

Legend:
Format in all cases: functional, cell-based
P388 [1] = test: Cytotoxicity against mouse P388 cells by MTT method
[2] = Cytotoxicity against human KBV1 cells by MTT method; details: KB-V1
P388 [3] = test: cells; details: Mus musculus
[4] = Cytotoxicity against human KBH5.0 cells by MTT method; details: KBH5.0 cell
[5] = Cytotoxicity against human KB3-1 cells by MTT method; details: KB 3-1
[6] = Cytotoxicity against human RPMI8402 cells by MTT method; details: RPMI 8402
[7] = Cytotoxicity against camptothecin-resistant human CPT-K5 cells by MTT method

IC50 (P388 [3]): 200 nM
Structure (SMILES): COc1cc2cc(CCCN(C)C)c3c4cc5c(cc4ncc3c2cc1OC)OCO5
IC50 (P388 [1]): 40 nM
IC50 [2]: 400 nM
IC50 [4]: 130 nM
IC50 [5]: 35 nM
IC50 [6]: 60 nM
IC50 [7]: 290 nM

IC50 (P388 [3]): > 10000 nM
Structure (SMILES): COc1cc2cc(C(N)=O)c3c4cc5c(cc4ncc3c2cc1OC)OCO5
IC50 (P388 [1]): 35 nM
IC50 [2]: 400 nM
IC50 [4]: 2700 nM
IC50 [5]: 55 nM
IC50 [6]: 140 nM
IC50 [7]: > 10000 nM

IC50 (P388 [3]): 300 nM
Structure (SMILES): COc1cc2cc(CN)c3c4cc5c(cc4ncc3c2cc1OC)OCO5
IC50 (P388 [1]): 26 nM
IC50 [2]: 160 nM
IC50 [4]: 210 nM
IC50 [5]: 30 nM
IC50 [6]: 120 nM
IC50 [7]: 2100 nM

IC50 (P388 [3]): 2000 nM
Structure (SMILES): COc1cc2cc(CN(C)C)c3c4cc5c(cc4ncc3c2cc1OC)OCO5
IC50 (P388 [1]): 100 nM
IC50 [2]: 250 nM
IC50 [4]: 290 nM
IC50 [5]: 60 nM
IC50 [6]: 100 nM
IC50 [7]: 2700 nM

IC50 (P388 [3]): > 10000 nM
Structure (SMILES): COc1cc2cc(CC[N+](=O)[O-])c3c4cc5c(cc4ncc3c2cc1OC)OCO5
IC50 (P388 [1]): 70 nM
IC50 [2]: 360 nM
IC50 [4]: 320 nM
IC50 [5]: 150 nM
IC50 [6]: 60 nM
IC50 [7]: > 10000 nM

Structure (SMILES): COc1cc2cc(CCN)c3c4cc5c(cc4ncc3c2cc1OC)OCO5
IC50 (P388 [1]): 14 nM
IC50 [2]: 500 nM
IC50 (P388 [3]): 180 nM
IC50 [4]: 110 nM
IC50 [5]: 20 nM
IC50 [6]: 32 nM
IC50 [7]: 200 nM

IC50 (P388 [3]): > 10000 nM
Structure (SMILES): CNC(=O)c1cc2cc(OC)c(OC)cc2c2cnc3cc4c(cc3c12)OCO4
IC50 [2]: 420 nM
IC50 [4]: 480 nM
IC50 [5]: 230 nM
IC50 [6]: 280 nM
IC50 [7]: > 10000 nM

IC50 (P388 [3]): 260 nM
Structure (SMILES): COc1cc2cc(C(=O)NCCN(C)C)c3c4cc5c(cc4ncc3c2cc1OC)OCO5
IC50 (P388 [1]): 15 nM
IC50 [2]: 1400 nM
IC50 [4]: 200 nM
IC50 [5]: 27 nM
IC50 [6]: 35 nM
IC50 [7]: 630 nM

IC50 (P388 [3]): > 10000 nM
Structure (SMILES): COc1cc2cc(CO)c3c4cc5c(cc4ncc3c2cc1OC)OCO5
IC50 (P388 [1]): 60 nM
IC50 [2]: 400 nM
IC50 [4]: 400 nM
IC50 [5]: 150 nM
IC50 [6]: 120 nM
IC50 [7]: > 10000 nM

IC50 (P388 [3]): 10000 nM
Structure (SMILES): COc1cc2cc(C=O)c3c4cc5c(cc4ncc3c2cc1OC)OCO5
IC50 (P388 [1]): 120 nM
IC50 [2]: 300 nM
IC50 [4]: 290 nM
IC50 [5]: 130 nM
IC50 [6]: 100 nM
IC50 [7]: > 10000 nM

IC50 (P388 [3]): 10000 nM
Structure (SMILES): COc1cc2cc(/C=C/[N+](=O)[O-])c3c4cc5c(cc4ncc3c2cc1OC)OCO5
IC50 (P388 [1]): 180 nM
IC50 [2]: 450 nM
IC50 [4]: 420 nM
IC50 [5]: 180 nM
IC50 [6]: 550 nM
IC50 [7]: > 10000 nM

IC50 (P388 [3]): 180 nM
Structure (SMILES): COc1cc2cc(CCN(C)C)c3c4cc5c(cc4ncc3c2cc1OC)OCO5
IC50 (P388 [1]): 15 nM
IC50 [2]: 60 nM
IC50 [4]: 40 nM
IC50 [5]: 21 nM
IC50 [6]: 20 nM
IC50 [7]: 330 nM

IC50 (P388 [3]): 350 nM
Structure (SMILES): COc1cc2cc(/C=C/CN(C)C)c3c4cc5c(cc4ncc3c2cc1OC)OCO5
IC50 (P388 [1]): 40 nM
IC50 [2]: 330 nM
IC50 [4]: 70 nM
IC50 [5]: 30 nM
IC50 [6]: 35 nM
IC50 [7]: 350 nM

IC50 (P388 [3]): > 10000 nM
Structure (SMILES): COc1cc2cc(C(=O)N(C)C)c3c4cc5c(cc4ncc3c2cc1OC)OCO5
IC50 (P388 [1]): 980 nM
IC50 [2]: 4000 nM
IC50 [4]: 3600 nM
IC50 [5]: 1200 nM
IC50 [6]: 1600 nM
IC50 [7]: > 10000 nM

IC50 (P388 [3]): > 10000 nM
Structure (SMILES): CCOC(=O)c1cc2cc(OC)c(OC)cc2c2cnc3cc4c(cc3c12)OCO4
IC50 (P388 [1]): 4000 nM
IC50 [2]: > 10000 nM
IC50 [4]: > 10000 nM
IC50 [5]: > 10000 nM
IC50 [6]: 10000 nM
IC50 [7]: > 10000 nM

IC50 (P388 [3]): 230 nM
Structure (SMILES): COc1cc2c(=O)n(CCN(C)C)c3c4cc5c(cc4ncc3c2cc1OC)OCO5
IC50 [2]: 5 nM
IC50 [5]: 5 nM

Structure (SMILES): CC[C@@]1(O)C(=O)OCc2c1cc1n(c2=O)Cc2cc3ccccc3nc2-1 [CAMPTOTHECIN]
IC50 (P388 [1]): 4 nM
IC50 (P388 [3]): > 10000 nM
IC50 [5]: 15 nM
IC50 [6]: 4 nM

Structure (SMILES): CCc1c2c(nc3ccc(OC(=O)N4CCC(N5CCCCC5)CC4)cc13)-c1cc3c(c(=O)n1C2)COC(=O)[C@]3(O)CC [IRINOTECAN]
IC50 [2]: 40000 nM
IC50 [4]: 7400 nM
IC50 [5]: 680 nM

IC50 (P388 [3]): > 10000 nM
Structure (SMILES): CC[C@@]1(O)C(=O)OCc2c1cc1n(c2=O)Cc2cc3c(CN(C)C)c(O)ccc3nc2-1 [TOPOTECAN]
IC50 [2]: 440 nM
IC50 [5]: 40 nM
IC50 [6]: 210 nM
